{
  "source": "paper PMC4712559",
  "about": "“Isolation and characterization of Bradykinin potentiating peptides from Agkistrodon bilineatus venom” (Proteome Science, 2016)",
  "target": "T1, Angiotensin converting enzyme from rabbit lung (Oryctolagus cuniculus, UniProt P12822)",
  "T1 construct": "Angiotensin converting enzyme from rabbit lung (A6778- 0.25 UN), was obtained from Sigma; purchased Sigma A6778; host or cells: rabbit lung tissue",
  "T1 sequence (P12822 34-1310)": "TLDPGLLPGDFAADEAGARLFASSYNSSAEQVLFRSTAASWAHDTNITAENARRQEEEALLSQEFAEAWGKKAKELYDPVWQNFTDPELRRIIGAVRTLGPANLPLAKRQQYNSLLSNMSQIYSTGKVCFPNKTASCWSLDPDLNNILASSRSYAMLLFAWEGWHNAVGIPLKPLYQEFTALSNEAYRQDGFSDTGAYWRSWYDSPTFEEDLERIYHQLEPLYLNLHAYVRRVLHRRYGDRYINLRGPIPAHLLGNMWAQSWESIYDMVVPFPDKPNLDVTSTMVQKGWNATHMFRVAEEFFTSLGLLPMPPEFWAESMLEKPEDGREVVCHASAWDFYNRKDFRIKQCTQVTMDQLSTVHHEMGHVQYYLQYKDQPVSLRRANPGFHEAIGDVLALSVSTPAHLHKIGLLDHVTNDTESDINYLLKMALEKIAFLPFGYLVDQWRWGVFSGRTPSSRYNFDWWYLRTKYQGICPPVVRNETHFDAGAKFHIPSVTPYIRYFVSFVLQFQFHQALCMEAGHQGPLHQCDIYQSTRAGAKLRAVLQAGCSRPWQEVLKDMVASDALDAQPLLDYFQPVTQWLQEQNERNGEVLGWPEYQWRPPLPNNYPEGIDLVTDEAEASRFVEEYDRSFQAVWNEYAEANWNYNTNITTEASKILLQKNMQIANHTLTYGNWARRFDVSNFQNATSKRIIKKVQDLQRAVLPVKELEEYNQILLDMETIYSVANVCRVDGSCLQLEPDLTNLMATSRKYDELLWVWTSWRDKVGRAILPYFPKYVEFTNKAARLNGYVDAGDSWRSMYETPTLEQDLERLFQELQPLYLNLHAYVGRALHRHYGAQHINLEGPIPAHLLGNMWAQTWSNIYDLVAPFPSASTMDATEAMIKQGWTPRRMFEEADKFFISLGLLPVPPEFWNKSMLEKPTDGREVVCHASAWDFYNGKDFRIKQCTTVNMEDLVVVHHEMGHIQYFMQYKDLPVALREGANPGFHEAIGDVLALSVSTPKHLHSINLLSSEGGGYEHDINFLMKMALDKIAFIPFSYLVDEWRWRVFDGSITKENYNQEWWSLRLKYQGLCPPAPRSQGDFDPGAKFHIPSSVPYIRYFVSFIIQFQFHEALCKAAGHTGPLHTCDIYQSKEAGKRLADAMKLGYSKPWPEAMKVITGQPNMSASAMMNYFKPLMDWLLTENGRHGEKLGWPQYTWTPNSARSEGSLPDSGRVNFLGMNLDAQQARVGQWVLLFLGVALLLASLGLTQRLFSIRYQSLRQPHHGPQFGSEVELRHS",
  "assay": "ACE inhibition by synthetic BPPs, fluorescence energy transfer assay with Abz-Phe-Arg-Lys(Dnp)-Pro-OH",
  "format": "biochemical",
  "details": "for ACE inhibition / IC 50, in words: qualitative comparison of the four synthesized peptides; for IC50: rabbit lung ACE, FRET substrate Abz-Phe-Arg-Lys(Dnp)-Pro-OH, Tris/NaCl/ZnCl2 buffer, pH 7.0, 10 min incubation at room temperature, λex 320 nm, λem 420 nm, 5 min, six serial dilutions 0.500-0.002 mM, 5 μl of dilution in assay, repeated five times",
  "description": "The snake venom of Agkistrodon bilineatus bilineatus, was obtained from Venom Supplies, Australia, and was placed at -20° till further use. The venom was collected from the snakes bred in the farms of Venom Supplies, Australia. All the solvents used were of HPLC grade and were obtained from Merck. The substrate Abz-Phe-Arg-Lys (Dnp)-Pro-OH for angiotensin converting enzyme was obtained from BACHEM. Angiotensin converting enzyme from rabbit lung (A6778- 0.25 UN), was obtained from Sigma. The synthesized peptides ZLWPRPQIPP, ZQWAQGRAPHPP, ZSAPGNEAIPP, ZNWPHPQIPP were purchased from China Peptide company, Shanghai, China. The peptides were 95 % pure, and were kept at -20° till use. The N-terminus of these synthetic peptide is pyroglutame (represented by Z), while the C-terminus is an amino acid with free carboxylic group.\nACE activities in the presence of venom peptides were determined by a fluorescence energy transfer assay using Abz-Phe-Arg-Lys (Dnp)-Pro-OH as a substrate. 1 mg of the substrate was weighed and dissolved in 1 ml DMSO. The exact concentration of the substrate was determined by taking four different volumes of the substrate stock solution, and constructing a standard curve spectrophometrically at 365 nm, using the molar extinction coefficient of the Dnp group ([…] = 17,300 M^−1 cm^−1), according to the Beer’s Lambert Law (A = εDnp x l x c). A stock solution of the enzyme was prepared by suspending 0.25 UN of ACE in 250 μl of the assay buffer (12.10 g Tris-base, 2.92 g NaCl and 1.36 mg ZnCl2 in 1 l of deionised water, pH to 7.0 adjusted with HCl).\nIn order to determine the IC 50 values of the synthesized peptides, a stock solution (10 mM) of each was prepared in the assay buffer. From the stock solutions, six serial dilutions were prepared for each peptide. The concentrations of the six dilutions were as follows, 0.500 mM, 0.167 mM, 0.056 mM, 0.019 mM, 0.006 mM and 0.002 mM respectively. In the final assay, 85 μl of the assay buffer, 2 μl of the enzyme stock solution, and 5 μl of the dilute peptide solution were added. The mixture was incubated for 10 min at room temperature. The reaction was started by adding 10 μl of the working solution of the substrate (20 μl of the stock +280 μl of the assay buffer). The same procedure was adopted using 5 μl of venom fractions instead of the synthetic peptides. Fluorescence measurements were made at λex = 320 nm and at λem = 420 nm, for 5 min each. These experiments were repeated five times to ensure accuracy of the results.",
  "note": "Where a SMILES comes first, the peptide text is derived from it.",
  "data": [
    {"smiles": "CC[C@H](C)[C@H](NC(=O)[C@H](C)NC(=O)[C@H](CCC(=O)O)NC(=O)[C@H](CC(N)=O)NC(=O)CNC(=O)[C@@H]1CCCN1C(=O)[C@H](C)NC(=O)[C@H](CO)NC(=O)[C@@H]1CCC(=O)N1)C(=O)N1CCC[C@H]1C(=O)N1CCC[C@H]1C(=O)O", "note": "[Inhibitor 3 (P5)] (HELM PEPTIDE1{[Glp].S.A.P.G.N.E.A.I.P.P}$$$$V2.0)", "values": [
      {"measurement": "ACE inhibition / IC 50, in words", "result": "much higher value"},
      {"measurement": "IC50", "result": 30000, "unit": "nM"}
    ]},
    {"smiles": "CC[C@H](C)[C@H](NC(=O)[C@H](CCC(N)=O)NC(=O)[C@@H]1CCCN1C(=O)[C@H](Cc1c[nH]cn1)NC(=O)[C@@H]1CCCN1C(=O)[C@H](Cc1c[nH]c2ccccc12)NC(=O)[C@H](CC(N)=O)NC(=O)[C@@H]1CCC(=O)N1)C(=O)N1CCC[C@H]1C(=O)N1CCC[C@H]1C(=O)O", "note": "[Inhibitor 4 (P3)] (HELM PEPTIDE1{[Glp].N.W.P.H.P.Q.I.P.P}$$$$V2.0)", "values": [
      {"measurement": "ACE inhibition / IC 50, in words", "setting": "listed as ZNWPHPQXPP", "result": "strongest inhibitors"},
      {"measurement": "ACE inhibition / IC 50, in words", "setting": "listed as peptide 5", "result": "low IC 50 values"},
      {"measurement": "IC50", "result": 760, "unit": "nM"}
    ]},
    {"smiles": "CC[C@H](C)[C@H](NC(=O)[C@H](CCC(N)=O)NC(=O)[C@@H]1CCCN1C(=O)[C@H](CCCNC(=N)N)NC(=O)[C@@H]1CCCN1C(=O)[C@H](Cc1c[nH]c2ccccc12)NC(=O)[C@H](CC(C)C)NC(=O)[C@@H]1CCC(=O)N1)C(=O)N1CCC[C@H]1C(=O)N1CCC[C@H]1C(=O)O", "note": "[Inhibitor 1 (P6)] (HELM PEPTIDE1{[Glp].L.W.P.R.P.Q.I.P.P}$$$$V2.0)", "values": [
      {"measurement": "ACE inhibition / IC 50, in words", "setting": "listed as ZLWPRPQXPP", "result": "strongest inhibitors"},
      {"measurement": "ACE inhibition / IC 50, in words", "setting": "listed as peptide 6", "result": "low IC 50 values"},
      {"measurement": "IC50", "result": 640, "unit": "nM"}
    ]},
    {"smiles": "C[C@H](NC(=O)[C@H](Cc1c[nH]c2ccccc12)NC(=O)[C@H](CCC(N)=O)NC(=O)[C@@H]1CCC(=O)N1)C(=O)N[C@@H](CCC(N)=O)C(=O)NCC(=O)N[C@@H](CCCNC(=N)N)C(=O)N[C@@H](C)C(=O)N1CCC[C@H]1C(=O)N[C@@H](Cc1c[nH]cn1)C(=O)N1CCC[C@H]1C(=O)N1CCC[C@H]1C(=O)O", "note": "[Inhibitor 2 (P7)] (HELM PEPTIDE1{[Glp].Q.W.A.Q.G.R.A.P.H.P.P}$$$$V2.0)", "values": [
      {"measurement": "ACE inhibition / IC 50, in words", "setting": "listed as ZQWAQGRAPHPP", "result": "low IC 50 value"},
      {"measurement": "ACE inhibition / IC 50, in words", "setting": "listed as peptide 7", "result": "low IC 50 values"},
      {"measurement": "IC50", "result": 3630, "unit": "nM"}
    ]}
  ]
}
